ChEMBL document CHEMBL2177061, “Factors influencing the specificity of inhibitor binding to the human and malaria parasite dihydroorotate dehydrogenases” (J Med Chem, 2012)
Numbering of substitutions follows the chain as printed. pIC50: −log10 of the molar value.

What was measured:
[1] = biological target: Dihydroorotate dehydrogenase (quinone), mitochondrial (Homo sapiens, UniProt Q02127); assay: Inhibition of human […] dehydrogenase expressed in Escherichia coli BL21(DE3) using […] as substrate by DCIP-based colorimetric analysis
Chain of Dihydroorotate dehydrogenase (quinone), mitochondrial (Q02127 whole entry): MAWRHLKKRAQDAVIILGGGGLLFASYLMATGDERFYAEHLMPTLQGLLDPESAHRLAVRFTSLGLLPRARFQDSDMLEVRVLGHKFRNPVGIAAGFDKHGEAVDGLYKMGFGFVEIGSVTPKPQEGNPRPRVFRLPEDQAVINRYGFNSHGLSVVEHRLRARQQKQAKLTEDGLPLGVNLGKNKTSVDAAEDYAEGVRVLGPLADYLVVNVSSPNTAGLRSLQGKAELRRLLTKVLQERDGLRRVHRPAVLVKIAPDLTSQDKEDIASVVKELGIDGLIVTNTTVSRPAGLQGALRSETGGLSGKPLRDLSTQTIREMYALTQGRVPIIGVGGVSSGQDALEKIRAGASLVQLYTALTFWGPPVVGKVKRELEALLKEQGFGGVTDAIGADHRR

[2] = biological target: T1, Dihydroorotate dehydrogenase (Plasmodium falciparum, UniProt Q54A96); assay: Inhibition of Plasmodium falciparum […] dehydrogenase expressed in Escherichia coli BL21(DE3) using […] as substrate by DCIP-based colorimetric analysis
T1 sequence (Q54A96 whole entry): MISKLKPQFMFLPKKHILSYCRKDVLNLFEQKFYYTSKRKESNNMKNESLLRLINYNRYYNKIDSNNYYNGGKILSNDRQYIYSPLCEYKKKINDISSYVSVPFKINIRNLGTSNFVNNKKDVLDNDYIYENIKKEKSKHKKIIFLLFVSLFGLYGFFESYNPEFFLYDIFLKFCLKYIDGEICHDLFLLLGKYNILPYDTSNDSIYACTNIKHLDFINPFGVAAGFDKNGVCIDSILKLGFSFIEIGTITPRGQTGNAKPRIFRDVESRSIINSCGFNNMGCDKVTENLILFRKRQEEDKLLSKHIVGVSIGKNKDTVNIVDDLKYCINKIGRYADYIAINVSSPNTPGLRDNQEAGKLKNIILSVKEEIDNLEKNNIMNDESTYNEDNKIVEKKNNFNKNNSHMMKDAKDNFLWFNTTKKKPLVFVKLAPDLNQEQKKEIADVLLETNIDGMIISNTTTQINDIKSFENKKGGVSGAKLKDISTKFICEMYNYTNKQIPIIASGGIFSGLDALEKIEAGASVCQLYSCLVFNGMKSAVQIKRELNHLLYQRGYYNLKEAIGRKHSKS

[3] = tested on: T2, Dihydroorotate dehydrogenase (quinone), mitochondrial (Plasmodium falciparum (isolate 3D7)), Q08210 [F188Y]; assay: Inhibition of Plasmodium falciparum […] dehydrogenase F188Y mutant expressed in Escherichia coli BL21(DE3) using […] as substrate at 100 uM by DCIP-based colorimetric analysis
T2 sequence (whole entry): T1 sequence (Q54A96 whole entry) with F188Y

[4] = tested on: T3, Dihydroorotate dehydrogenase (quinone), mitochondrial (Plasmodium falciparum (isolate 3D7)), Q08210 [C276Y]; assay: Inhibition of Plasmodium falciparum […] dehydrogenase C276Y mutant expressed in Escherichia coli BL21(DE3) using […] as substrate at 100 uM by DCIP-based colorimetric analysis
T3 sequence (whole entry): T1 sequence (Q54A96 whole entry) with C276Y

[5] = tested on: T4, Dihydroorotate dehydrogenase (quinone), mitochondrial (Plasmodium falciparum (isolate 3D7)), Q08210 [C276F]; assay: Inhibition of Plasmodium falciparum […] dehydrogenase C276F mutant expressed in Escherichia coli BL21(DE3) using […] as substrate at 100 uM by DCIP-based colorimetric analysis
T4 sequence (whole entry): T1 sequence (Q54A96 whole entry) with C276F

[6] = tested on: T5, Dihydroorotate dehydrogenase (quinone), mitochondrial (Plasmodium falciparum (isolate 3D7)), Q08210 [H185A]; assay: Inhibition of Plasmodium falciparum […] dehydrogenase H185A mutant expressed in Escherichia coli BL21(DE3) using […] as substrate at 100 uM by DCIP-based colorimetric analysis
T5 sequence (whole entry): T1 sequence (Q54A96 whole entry) with H185A

[7] = tested on: Plasmodium falciparum; assay: Ratio of IC50 for Plasmodium falciparum […] dehydrogenase C276A mutant to IC50 for Plasmodium falciparum wild type […] dehydrogenase
[8] = species: Homo sapiens; assay: Ratio of IC50 for human dihydrofolate dehydrogenase Y147F mutant to IC50 for human wild type dihydrofolate dehydrogenase
[9] = species: Homo sapiens; assay: Ratio of IC50 for human dihydrofolate dehydrogenase Y147C mutant to IC50 for human wild type dihydrofolate dehydrogenase
[10] = species: Homo sapiens; assay: Ratio of IC50 for human […] dehydrogenase H56A mutant to IC50 for human wild type […] dehydrogenase
[11] = species: Homo sapiens; assay: Ratio of IC50 for human dihydrofolate dehydrogenase Y147A mutant to IC50 for human wild type dihydrofolate dehydrogenase
[12] = species: Homo sapiens; assay: Inhibition of human […] dehydrogenase Y147C mutant expressed in Escherichia coli BL21(DE3) using […] as substrate at 100 uM by DCIP-based colorimetric analysis
[13] = species: Homo sapiens; assay: Inhibition of human […] dehydrogenase Y147A mutant expressed in Escherichia coli BL21(DE3) using […] as substrate at 100 uM by DCIP-based colorimetric analysis
[14] = species: Homo sapiens; assay: Inhibition of human […] dehydrogenase H56A mutant expressed in Escherichia coli BL21(DE3) using […] as substrate at 100 uM by DCIP-based colorimetric analysis
[15] = tested on: Plasmodium falciparum; assay: Ratio of IC50 for Plasmodium falciparum […] dehydrogenase F188A mutant to IC50 for Plasmodium falciparum wild type […] dehydrogenase
[16] = tested on: Plasmodium falciparum; assay: Ratio of IC50 for Plasmodium falciparum […] dehydrogenase C276Y mutant to IC50 for Plasmodium falciparum wild type […] dehydrogenase
[17] = tested on: Plasmodium falciparum; assay: Ratio of IC50 for Plasmodium falciparum […] dehydrogenase C276F mutant to IC50 for Plasmodium falciparum wild type […] dehydrogenase
[18] = tested on: Plasmodium falciparum; assay: Ratio of IC50 for Plasmodium falciparum […] dehydrogenase H185A mutant to IC50 for Plasmodium falciparum wild type […] dehydrogenase
[19] = species: Homo sapiens; assay: Inhibition of human […] dehydrogenase Y147F mutant expressed in Escherichia coli BL21(DE3) using […] as substrate at 100 uM by DCIP-based colorimetric analysis

Structure (SMILES) | pIC50 [1] | pIC50 [2] | further results
Cc1cc(N)n2nc(SCc3ccc(Cl)c(Cl)c3)nc2n1 | < 4.00 | < 4.00 | 
Cc1cc(NCc2ccccc2)n2nc(SCc3ccccc3)nc2n1 | < 4.00 | < 4.00 | 
Cc1cc(O)n2nc(SCc3ccccc3)nc2n1 | 4.05 | 4.21 | 
COc1ccc(CSc2nc3nc(C)cc(O)n3n2)cc1 | 4.20 | 4.68 | 
Cc1ccc(CSc2nc3[nH]c(C)cc(=O)n3n2)cc1 | 4.34 | 4.59 | 
Cc1cc(O)n2nc(SCc3cc(Cl)ccc3Cl)nc2n1 | 7.29 | 4.96 | inhibition [3]: < 50%; inhibition [4]: < 50%; inhibition [5]: < 50%; inhibition [6]: < 50%; Ratio IC50 [7]: 3.7; Ratio IC50 [8]: 1.1; Ratio IC50 [9]: 14; Ratio IC50 [10]: 7.1; Ratio IC50 [11]: 20
Cc1cc(N)n2nc(SCc3ccccc3)nc2n1 | < 4.00 | < 4.00 | 
Cc1cc(O)n2nc(SCc3ccc(Cl)c(Cl)c3)nc2n1 | 5.19 | 5.72 | inhibition [3]: < 50%; inhibition [4]: < 50%; inhibition [5]: < 50%; inhibition [6]: < 50%; Ratio IC50 [7]: 2; inhibition [12]: < 50%; inhibition [13]: < 50%; inhibition [14]: < 50%; Ratio IC50 [8]: 8.8
Cc1cc(Nc2ccc3ccccc3c2)n2ncnc2n1 |  |  | Ratio IC50 [15]: 29; Ratio IC50 [16]: 3.5; Ratio IC50 [17]: 2.3; Ratio IC50 [7]: 0.69; Ratio IC50 [18]: 19
Cc1cc(=O)n2nc(SCc3ccc(Cl)cc3)nc2[nH]1 | 4.41 | 6.00 | inhibition [3]: < 50%; inhibition [4]: < 50%; inhibition [5]: < 50%; inhibition [6]: < 50%; Ratio IC50 [7]: 1.5; inhibition [19]: < 50%; inhibition [12]: < 50%; inhibition [13]: < 50%; inhibition [14]: < 50%

Further lines, with some results ahead:

pIC50 [1] | pIC50 [2] | Structure (SMILES) | further results
5.02 | < 4.00 | Cc1cc(O)n2nc(SCc3ccccc3[N+](=O)[O-])nc2n1 | 
4.89 | < 4.00 | CCc1cc(O)n2nc(SCc3ccc(Cl)cc3)nc2n1 | 
4.49 | 4.48 | Cc1cc(O)n2nc(SCc3ccc(Br)cc3)nc2n1 | 
4.54 | 5.25 | Cc1cc(O)n2nc(SCc3cccc(Cl)c3)nc2n1 | 
4.52 | 4.72 | Cc1cc(C)cc(CSc2nc3nc(C)cc(O)n3n2)c1 | 
4.92 | 4.55 | Cc1cc(O)n2nc(SCc3ccccc3Cl)nc2n1 | 
4.74 | 5.46 | Cc1cc(O)n2nc(SCc3c(Cl)cccc3Cl)nc2n1 | 
